According to a melting point compilation (Tetko et al.; mined from patent text by program, amines drawn as free bases though some values may be those of a salt):

Compound | melting point [°C]
CCc1c2nc(-c3cc(S(C)(=O)=O)ccc3OCC(C)C)[nH]c(=O)c2nn1Cc1ccccn1 | 235 to 238
CSc1ccc(CSc2cccc(C(=O)Nc3ccc(Cl)cn3)c2)cc1 | 159 to 161
CNS(=O)(=O)c1cc(C)ccc1C=C1c2ccccc2CCc2ccccc21 | 175
CC1CC(=O)N(CCO)N=C1c1ccc2c(c1)CCC(=O)N2C (stereo unspecified) | 171 to 173
O=S(=O)(Nc1ccccc1/C=C/c1ccncc1)c1ccc(Cl)cc1 | 218 to 220
O=c1nc(-c2ccc([N+](=O)[O-])cc2)oc2ccccc12 | 249 to 251
CC1(NC(=O)CN2C(=O)c3ccccc3C2=O)CCCCCC1 | 190
O=C(O)CN1C(=O)C(=Cc2c(-c3ccccc3)[nH]c3ccccc23)SC1=S | 258 to 262
CCCOc1c(C=O)c(=O)n(C)c(=O)n1C | 57 to 58
COC(=O)c1ccc(CC(C)NCC(O)c2cccc(C(F)(F)F)c2)cc1 (stereo unspecified) | 73 to 88
Nc1ccc2c(c1)c(-c1ccc(CO)o1)nn2Cc1ccccc1 | 156
O=C1CCCNC12CCCCC2 | 55
COC=C1CN(C(c2ccccc2)c2ccccc2)C1 | 56 to 58
Cc1ccc(N2CCN(Cc3n[nH]c4c(Cl)cccc34)CC2)cc1 | 187 to 188
CCCC(CCC)N(C[C@H]1CC[C@H](CN(C(=O)Nc2ccc(N(C)C)cc2)C(CCC)CCC)CC1)C(=O)Nc1ccc(N(C)C)cc1 | 173 to 176
[N-]=[N+]=Nc1cc(OCCO)ncn1 | 49 to 50
CCCCCN(CCCCC)C(=O)N1CCN(C(=O)N(c2ccccc2)c2ccccc2)[C@H](CO)C1 | 133 to 134
CC(C)(C)OC(=O)N1CCn2c(c(C(N)=O)c(C#N)c2-c2ccccc2)C1 | 214 to 215
COc1ccc(-c2n[nH]c3c2c(=O)n(-c2ccccc2)c2ncccc32)cc1 | > 300
O=C1C=CC2(C=C1)N=C(N1CCN(Cc3ccc(F)cc3)CC1)C=C2c1ccccc1 | 188
CC(C)c1nnc2c3ccc(Cl)cc3c(-c3ccccc3)nn12 | 214 to 216
C=CCC(C)(C)CNc1cc(N2CCNCC2)nc(NCC(C)(C)CC=C)n1 | 72 to 84

The next lines start with the values.

melting point [°C] | Compound
125 to 126 | CC(C)(C)C(=O)OC1=CC(=O)C(=O)c2ccccc21
151 | COc1ccc(C2=C(C#N)c3ccc(OC)cc3CC2)cc1
60 to 64 | O=C([C@H](Cc1ccccc1)NC1CCCCC1)N1CCN(C(c2ccc(F)cc2)c2ccc(F)cc2)CC1
240 | Cc1ccc2c(c1)c1cc(-c3ccc(Cl)cc3Cl)c(=O)n(C)c1n2CCO
195 to 197 | O=[N+]([O-])c1cnn2c(-c3ccccc3C(F)(F)F)ccnc12
162 to 163 | N#CC(c1ccc(Cl)cc1)c1c(Cl)cc(NN=Cc2ccccc2)cc1Cl (stereo unspecified)
126 to 135 | Cc1cc(N)cc(C)c1Oc1ccc(Cl)c2c1CCCC2
161 to 162 | O=C(c1ccc(F)cc1)c1ccc2n1CCCC2C(=O)O (stereo unspecified)
159 to 161 | O=C(O)C1=CC(CF)(CF)Oc2ccc(C(F)(F)F)cc21
32 to 33 | Cc1ccc(Br)c2occc12
272 | NS(=O)(=O)c1ccc(-c2nc(-c3cnn4c(C(F)(F)F)cc(-c5ccc(C(F)(F)F)cc5)nc34)no2)s1
278 to 281 | N#CC(C#N)=C1Sc2nc3ccc(C#N)cc3nc2S1
225 to 226 | O=C(Nc1cnc2sc(CO)nc2c1)c1cc2cc(F)ccc2n1Cc1cccc(F)c1
> 285 | O=C1CN2Cc3ccccc3N=C2N1
142 to 144 | CCCOc1cc(C(=O)O)cc([N+](=O)[O-])c1-c1ccccc1
104 to 106 | Cc1ccc(C)c(N2C(=O)CON(C)C2=S)c1
117 to 119 | CCC1(CCCCN2CCc3sc(Cl)cc3C2)C(=O)Nc2ccccc21 (stereo unspecified)
65.9 to 66.4 | FS(F)(F)(F)(F)c1cc(Br)cc(S(F)(F)(F)(F)F)c1
189 to 190 | Nc1cc(Br)c(Br)cc1N
